Test results published in patent EP4574175A1, “PRODRUG FOR ANTI-AGING RELATED DISEASES AND USE METHOD THEREFOR” (BEIJING SUNCELL BIO-MEDICAL CO., LTD., priority 2022, dated 2024).

Key:
platelets = test: In vivo platelet toxicity test; design: species or system C57 mice; details: multiple rounds i.p.
Method: (§1) All drugs were mixed in 85% physiological saline, 5% DMSO (Sigma, D8418) and 10% Solutol HS 15 (Sigma, 42966), and administered to mice by intraperitoneal (i.p.) injection. To treat the bleomycin-injured young mice, A13 (2 mg/kg), A13bGa1 (5 mg/kg), or an empty vehicle control was administered three consecutive days per week for four weeks. A1331852 (abbreviated as A13) was purchased from MCE.
(§2) A single administration of A13 or A13bG was performed. Female 5-6 week old C57 mice were treated with a single intraperitoneal injection. A13 and A13bG were administered in three different dose groups of 2, 5, and 20 mg/kg. Approximately 50 µl of blood was collected from each mouse at different time points into the EDTA tubes (RAM Scientific) by means of inner canthal blood extraction, and analyzed using a haematology analyzer for a blood routine examination and a platelet counting. Multiple administrations of A13 or A13bG were performed. Female 5-6 week old C57 mice were treated with multiple intraperitoneal injections. A13 and A13bG were administered in three different dose groups of 2, 5 and 20 mg/kg, three consecutive days per week, followed by a 4-day withdrawal for 3 weeks. The time points of administration were in the afternoon of days 0, 1, 2, 7, 8, 9, 14, 15, and 16, and the time points of blood collection and testing were in the morning of days 1, 3, 5, 8, 10, 12, 15, 17, and 19, respectively.
For a blood routine examination, 50 µl of fresh blood was collected from each mouse and immediately mixed with EDTA. Blood samples were analyzed by Celltac Alpha MEK-6400 series haematology analyzer (Nihon Kohden, MEK-6400). Data were expressed as the number of different blood cells or platelets per µl of blood. For the serum biochemical analysis, the blood samples were collected, coagulated for 2 hours at room temperature or overnight at 4°C, and then centrifuged (1000 g, 10 minutes) to obtain serum. A 200 µl of serum was aliquoted and analyzed for alanine aminotransferase (ALT), aspartate aminotransferase (AST), uric acid (UA), and creatinine (CREA) by a chemistry analyzer (Mindray, BS-350E).

[1] = test system: induced senescent A549 cell; test: In vitro compound screening, cell viability test (CCK-8); assay type: cell-based, human
[2] = test system: induced senescent HEF cell; test: as above; assay type: cell-based, human; details: HEF-ETO, Figure 1C
Method: Briefly, the human embryonic skin tissues and the fetal lung tissues obtained from the aborted tissues with the patient's informed consent were minced with the forcep and incubated in 1 mg/ml collagenase IV at 37°C for 1-2 hours. After the enzyme treatment, the cells were collected by centrifugation and resuspended in HEF medium (Dulbecco's modified Eagle medium (DMEM, Gibco) containing 10% fetal bovine serum (FBS, Ausbian), 1% GlutaMAX (Gibco), 1% non-essential amino acids (NEAA, Gibco) and 1% penicillin/streptomycin (Gibco). Gibco). Cells were plated on the 10 cm tissue culture dishes and grown in 10% FBS DMEM. […] They were passaged and cryopreserved according to Lonza's method. A549 cells, BJ cells and MRC5 cells were purchased from ATCC and cultured in DMEM medium containing 10% fetal bovine serum (FBS, Ausbian), and 1% penicillin/streptomycin (Gibco).
Cell Counting Kit-8 (CCK-8) assay was used to assess the cell viability. The senescent and non-senescent cells or chondrocytes were seeded into the 96-well plates and cultured overnight. The cells were then treated with control (0.05% DMSO) or different concentrations of the drug to be tested. […] Absorbance was measured at the wavelength of 450 nm.

[3] = Daily observation of mice during multiple administration; assay type: in vivo, C57 mice; details: after 3 consecutive rounds of administration
Method: as §2

[4] = test system: mouse model of Bleomycin-induced pulmonary fibrosis; test: Bleomycin-induced pulmonary fibrosis mouse model; assay type: in vivo, C57 mice; details: A13 2 mg/kg
Method: as §1
Bleomycin was purchased from Selleck. […]. Drug treatment was initiated four days after modelling, and the drug was administered three consecutive days per week for four consecutive weeks, after which the mice were executed for material collection.
All animals (including those found dead, dying, and euthanised) were autopsied, and the lung tissues were preserved. The lungs were separated, the fat and other tissues were removed, the surface fluid was absorbed using a filter paper, and the whole lungs were weighed (those found dead, dying, and euthanised) for calculation of the lung weight index. The right lung and bronchiole were fixed in 10% neutral buffered formalin solution, embedded in paraffin, sectioned, prepared into slices, and stained with HE for a histopathological and morphological observation of the lung. The degree of the lesions such as the inflammatory cell infiltration in the lung tissue were graded according to a 4-grade classification (slight, mild, moderate, severe) using a standard terminology for diagnosis and classification. The left lung tissue was clipped and stored temporarily below -60°C. Lung weight index(%) = lung weight/body weight × 100%. [formula]
Masson trichrome stain kit (Solarbio, G1340) was used to detect fibrosis in the lung tissue. The formalin-fixed, and paraffin-embedded lung sections were dewaxed with xylene, and then rehydrated with 100% alcohol, 95% alcohol and distilled water. The sections were then stained according to the manufacturer's instructions. Afterwards, the sections were rapidly dehydrated with 95% alcohol and 100% alcohol, cleaned with xylene and covered with the coverslips. […]

[5] = lung HE, number of animals of 6, A13bGa1 5 mg/kg
[6] = number of animals of 6, A13bGa1 5 mg/kg

SMILES: Cc1c(-c2ccc(N3CCc4cccc(C(=O)Nc5nc6ccccc6s5)c4C3)nc2C(=O)O)cnn1CC12CC3CC(CC(C3)C1)C2 [A13, 3-[1-(adamantan-1-ylmethyl)-5-methylpyrazol-4-yl]-6-{8-[(1,3-benzothiazol-2-yl)carbamoyl]-3,4-dihydro-1H-isoquinolin-2-yl}pyridine-2-carboxylic acid]
- toxic effects on the platelets (platelets; 3 consecutive days per week for 3 weeks, 2 mg/kg): very serious toxic effects on the platelets
- toxic effects on the platelets (platelets; 3 consecutive days per week for 3 weeks, 2, 5 and 20 mg/kg): strong destructive effects on the platelets
- killing activity on the senescent cells compared with ABT-263 ([1]; A549-CDDP, Figure 1B): higher than that of the classical small molecule inhibitor ABT-263
- senescent cell killing activity and selectivity in vitro (screening) ([1]; induced senescent A549 cell model, Figure 1A): good senescent cell killing activity and selectivity in vitro
- killing activity on the senescent cells compared with ABT-263 [2]: higher than that of the classical small molecule inhibitor ABT-263
- mice depilated, dispirited and in poor state ([3]; 5 mg/kg i.p.): 2/4
- mice depilated, dispirited and in poor state ([3]; 20 mg/kg i.p.): 2/4
- pathological manifestations of the pulmonary fibrosis (Masson staining) ([4]; A13bGa1 5 mg/kg i.p.): not improved
- lung index ([4]; A13bGa1 5 mg/kg i.p., 3 consecutive days per week for 4 weeks): no improvement
- inflammation and consolidation of the mouse lungs (pathological sections) ([4]; A13bGa1 5 mg/kg i.p., HE staining): no improvement was observed
- Bleeding, alveolar/interstitial: mild (++) [4, 5]: 2
- Bleeding, alveolar/interstitial: moderate (+++) [4, 5]: 0
- Bleeding, alveolar/interstitial: negative (-) [4, 5]: 2
- Bleeding, alveolar/interstitial: slight (+) [4, 5]: 2
- Exudative oedema, alveolar: mild (++) [4, 5]: 1
- Exudative oedema, alveolar: moderate (+++) [4, 5]: 1
- Exudative oedema, alveolar: negative (-) [4, 5]: 0
- Exudative oedema, alveolar: severe (++++) [4, 5]: 3
- Exudative oedema, alveolar: slight (+) [4, 5]: 1
- The infiltration of the inflammatory cells: mild (++) [4, 5]: 2
- The infiltration of the inflammatory cells: moderate (+++) [4, 5]: 1
- The infiltration of the inflammatory cells: negative (-) [4, 5]: 1
- The infiltration of the inflammatory cells: slight (+) [4, 5]: 2
- Thickening and consolidation of the pulmonary septum: mild (++) [4, 5]: 2
- Thickening and consolidation of the pulmonary septum: moderate (+++) [4, 5]: 1
- Thickening and consolidation of the pulmonary septum: negative (-) [4, 5]: 0
- Thickening and consolidation of the pulmonary septum: severe (++++) [4, 5]: 2
- Thickening and consolidation of the pulmonary septum: slight (+) [4, 5]: 1
- degree of fibrosis in the lungs using Masson staining: Moderately strong positive (+++) [4, 6]: 1
- degree of fibrosis in the lungs using Masson staining: extremely strong positive (++++) [4, 6]: 2
- degree of fibrosis in the lungs using Masson staining: moderately positive (++) [4, 6]: 1
- degree of fibrosis in the lungs using Masson staining: not positive (-) [4, 6]: 0
- degree of fibrosis in the lungs using Masson staining: weakly positive (+) [4, 6]: 2
